Molecular target: T1, H3 receptor (Cavia porcellus, UniProt Q9JI35)
T1 construct: the longitudinal muscle layer and adhering myenteric plexus was teased away; from tissue; host or cells: ileal longitudinal muscle with adhering myenteric plexus of male Dunkin-Hartley guinea pigs
Test: H3 receptor bioassay (functional assay), guinea pig ileal longitudinal muscle myenteric plexus
Format: cell-based
Conditions: for Kb: read-out: pKB (functional assay) (converted)
Protocol: The biological activity of the compounds of the examples was measured using the ileal longitudinal muscle, myenteric plexus assay described by Paton and Aboo Zar (J. Physiol. 194, 13-33 (1968)). Male Dunkin-Hartley guinea pigs (250-300 g) were employed. Briefly, a 50 cm portion of ileum proximal to the caecum was removed, after discarding the terminal 20 cm. Ileal segments (3 cm) were cleaned by passing Krebs-Henseleit buffer containing 3 μM mepyramine gently through the ileum using a Pasteur pipette (size: 13.8 cm length, 0.65 cm diameter). To avoid unnecessary damage to the tissue, Krebs-Henseleit buffer was passed through the ileal segment, while it was lying horizontally on a petri dish. Therefore, the ileum was not over-distended and the buffer flowed through with ease. Each segment was then passed over a Pasteur pipette and the longitudinal muscle layer and adhering myenteric plexus was teased away using moist cotton wool, by stroking tangentially away from the mesenteric attachment. The tissues were suspended in 20 ml organ baths containing Krebs-Henseleit buffer at 37±1° C. and gassed with […]. The tissues were ligated to two parallel stainless steel wires, situated between two platinum electrodes (0.76 cm length, 0.06 cm diameter). All measurements were recorded isometrically (Grass FTO3 transducer). Following an initial loading tension of 1 g, the tissues were stimulated with electrical pulses at a frequency of 0.1 Hz and a pulse duration of 0.5msec, as described by Kosterlitz & Watt (1968). Initially, the tissues were stimulated at supramaximal (1.3 fold times maximal) voltage for a period of 30 min and then the tissues were washed and re-stimulated. A "sighter dose" of the selective histamine H3 -receptor agonist, R-(α)-methylhistamine(0.3 μM) (Arrang et al., 1987), was administered. Upon generation of response, the "sighter dose" was removed from the tissues by "washout" (6 washes over 60 min) and during this period the electrical stimulation was switched off. The tissues were then re-stimulated and allowed to stabilise prior to the addition of drug treatments, which were allocated on a randomised block basis to the organ baths. Following the incubation period, a single cumulative E/[A] curve was obtained. The experimental E/[A] curve data was expressed as the percentage inhibition of the peak height of electrically-stimulated contraction. Antagonist affinity values were calculated from the degree of rightward shift of the R-(α)-methylhistamine E/[A] curves using Schild's methods (Arunlatcshama & Schild, 1949).
Typical variance in the functional assay is ±0.15 log units. Typical variance in the binding assay is ±0.12 log units. This means that if the discrepancy between the two assays is greater than about 0.5 log units, then this difference on average is significant.

[1] = antagonism of R-(α)-methylhistamine E/[A] curve, Schild's methods, electrically stimulated guinea pig ileum, variance ±0.15 log units

T1 sequence (Q9JI35 whole entry): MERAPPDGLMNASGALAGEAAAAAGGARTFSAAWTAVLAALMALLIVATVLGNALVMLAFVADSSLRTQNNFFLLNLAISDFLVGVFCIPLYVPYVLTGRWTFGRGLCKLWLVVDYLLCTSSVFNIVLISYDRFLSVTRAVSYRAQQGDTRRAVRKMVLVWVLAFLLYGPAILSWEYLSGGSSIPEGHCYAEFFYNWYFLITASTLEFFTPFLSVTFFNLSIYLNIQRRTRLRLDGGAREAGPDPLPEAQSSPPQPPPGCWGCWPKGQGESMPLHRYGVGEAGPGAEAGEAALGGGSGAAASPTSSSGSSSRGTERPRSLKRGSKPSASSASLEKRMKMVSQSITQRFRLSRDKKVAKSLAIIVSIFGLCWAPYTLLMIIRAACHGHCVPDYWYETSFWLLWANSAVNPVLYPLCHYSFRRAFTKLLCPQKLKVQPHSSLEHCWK

Kb [1] [nM]	Emax (guinea pig, printed beside 4.99 in the line of Example 73, read-out: α (functional assay)) [%]	Structure (SMILES)	pKB (functional assay) [1]
4070	–	O=S(=O)(NCCCc1c[nH]cn1)c1ccc2ccccc2c1 [Example 28, N-[3-(4(5)-Imidazoyl)propyl]-2-naphthalenesulfonamide]	–
10200	~20	COC(=O)[C@H](Cc1c[nH]cn1)NS(=O)(=O)c1ccc2ccccc2c1 [Example 73, 3-(4(5)-Imidazoyl)-2S-(2-naphthalene)sulfonamino-propionic Acid Methyl Ester]	–
–	–	O=S(=O)(NCCc1c[nH]cn1)NCc1ccccc1 [Example 35, N-[2-(4(5)-Imidazoyl)ethyl]-N'-phenylmethyl-sulfamide]	5.59
398	–	O=S(=O)(CCCC1CCCCC1)NCCc1c[nH]cn1 [Example 4, N-[2-(4(5)-Imidazoyl)ethyl]-3-cyclohexylpropanesulfonamide]	–
7.94	–	O=S(=O)(Cc1ccc(-c2ccccc2)cc1)NCCCCc1c[nH]cn1 [Example 84, N-[4-(4(5)-Imidazoyl)butyl]-(4-biphenyl)methanesulfonamide]	–
2400	–	O=S(=O)(NCCc1c[nH]cn1)c1ccccc1 [Example 2, N-[2-(4(5)-Imidazoyl)ethyl]-benzenesulfonamide]	–
7760	–	O=S(=O)(NCCCc1c[nH]cn1)c1ccccc1 [Example 27, N-[3-(4(5)-Imidazoyl)propyl]-benzenesulfonamide]	–
537	–	O=S(=O)(NCCc1c[nH]cn1)c1cccc2ccccc12 [Example 3, N-[2-(4(5)-Imidazoyl)ethyl]-1-naphthalenesulfonamide]	–
170	–	O=S(=O)(NCCc1c[nH]cn1)c1ccc(Cl)c(Cl)c1 [Example 16, N-[2-(4(5)-Imidazoyl)ethyl]-3,4-dichlorobenzenesulfonamide]	–
955	–	O=S(=O)(N[C@@H]1C[C@H]1c1c[nH]cn1)c1ccc2ccccc2c1 (relative stereo) [Example 72, N-[2-(4(5)-Imidazoyl)-trans-cyclopropyl]-2-naphthalenesulfonamide]	–
8.91	–	CN(CCCCc1c[nH]cn1)S(=O)(=O)CCc1ccc(Cl)cc1 [Example 85, N-[4-(4(5)-Imidazoyl)butyl]-N-methyl-2-(4-chlorophenyl)ethanesulfonamide]	–

Structure (SMILES)	Kb [1] [nM]	Emax (guinea pig, printed beside 4.99 in the line of Example 73, read-out: α (functional assay)) [%]	pKB (functional assay) [1]
O=S(=O)(NCCc1c[nH]cn1)NCc1ccc(Cl)cc1 [Example 37, N-[2-(4(5)-Imidazoyl)ethyl]-N'-(4-chlorophenyl)methyl-sulfamide]	1950	–	–
O=S(=O)(CCCc1ccccc1)NCCc1c[nH]cn1 [Example 18, N-[2-(4(5)-Imidazoyl)ethyl]-3-phenylpropanesulfonamide]	162	–	–
O=S(=O)(CCc1ccccc1)NCCc1c[nH]cn1 [Example 17, N-[2-(4(5)-Imidazoyl)ethyl]-2-phenylethanesulfonamide]	447	–	–
O=S(=O)(NCCCc1c[nH]cn1)NCc1ccccc1 [Example 36, N-[3-(4(5)-Imidazoyl)propyl]-N'-phenylmethyl-sulfamide]	692	–	–
O=S(=O)(Cc1ccc(Cl)cc1)NCCCc1c[nH]cn1 [Example 26, N-[3-(4(5)-Imidazoyl)propyl]-(4-chlorophenyl)methanesulfonamide]	513	–	–

Source: patent US6080871A, “Sulfonamides and sulfamides as H3 receptor antagonists” (James Black Foundation Limited, priority 1996, dated 2000)
